One compound from ChEMBL document CHEMBL5727943, “Composition and methods for inhibiting mammalian sterile 20-like kinase 1” (2020) can be followed below.

pIC50: −log10 of the molar value.

Assay [1] addresses T1, Serine/threonine-protein kinase 4 (Homo sapiens, UniProt Q13043).
T1 sequence (Q13043 whole entry): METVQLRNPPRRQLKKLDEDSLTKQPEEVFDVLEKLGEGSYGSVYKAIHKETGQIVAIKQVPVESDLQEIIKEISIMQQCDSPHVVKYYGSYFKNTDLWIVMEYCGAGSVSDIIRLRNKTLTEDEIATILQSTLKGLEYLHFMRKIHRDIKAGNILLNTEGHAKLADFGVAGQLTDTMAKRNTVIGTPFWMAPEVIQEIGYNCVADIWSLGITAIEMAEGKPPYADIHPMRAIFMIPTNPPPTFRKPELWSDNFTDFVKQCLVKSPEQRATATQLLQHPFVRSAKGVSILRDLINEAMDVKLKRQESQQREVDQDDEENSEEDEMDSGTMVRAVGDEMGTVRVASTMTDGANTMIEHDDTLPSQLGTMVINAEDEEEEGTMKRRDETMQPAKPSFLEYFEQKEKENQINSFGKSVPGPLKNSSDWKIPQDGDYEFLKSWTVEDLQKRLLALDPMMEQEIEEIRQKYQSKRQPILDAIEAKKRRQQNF
The experiment in a line: (§1) MST1/MST2 Biochemical LanthaScreen Eu Kinase Binding Assay: MST1 and MST2 biochemical LanthaScreen Eu Kinase Binding Assay was based on the binding and displacement of kinase tracer to the kinase of interest. Compounds in 1000×DMSO stock solution was dispensed using automated dispensing system (Labcyte) to 384 well Corning Microplate at 15 nL, 5 uL of Kinase buffer A was added to each well. Plates were shaken and incubated for 1 min to ensure well dissolution of compounds.

The target of assay [2] is T2, Serine/threonine-protein kinase 3 (Homo sapiens, UniProt Q13188).
T2 sequence (Q13188 whole entry): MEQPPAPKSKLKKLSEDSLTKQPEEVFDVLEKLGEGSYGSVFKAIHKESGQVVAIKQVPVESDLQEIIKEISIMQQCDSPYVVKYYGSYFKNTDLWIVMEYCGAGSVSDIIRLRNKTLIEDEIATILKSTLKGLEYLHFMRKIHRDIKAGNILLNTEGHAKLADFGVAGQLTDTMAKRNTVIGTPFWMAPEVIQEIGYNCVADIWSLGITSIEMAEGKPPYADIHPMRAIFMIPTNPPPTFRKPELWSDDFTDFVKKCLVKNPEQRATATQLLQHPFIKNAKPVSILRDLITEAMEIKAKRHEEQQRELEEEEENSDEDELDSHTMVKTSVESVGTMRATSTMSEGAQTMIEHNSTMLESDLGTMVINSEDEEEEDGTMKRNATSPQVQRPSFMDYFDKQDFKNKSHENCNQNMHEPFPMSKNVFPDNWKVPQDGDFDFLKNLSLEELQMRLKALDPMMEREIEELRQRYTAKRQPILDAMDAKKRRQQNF
Described as §1.

Consider `CCOc1cc2ncc(C#N)c(Nc3ccc(OCc4ncccc4C)cc3Cl)c2cc1NC(=O)/C=C/CN(C)C`, for which the pIC50 in assay [1] and in assay [2] was more than 7.00 in each case.
